Ends that are not written are not given here.
How the values were obtained:
[1] = tested on: Xanthomonas vesicatoria; settings: Table 4, incubation period 2d; LB-medium, 27°C
[2] = tested on: Pseudomonas syringae pv. tomato; settings: Table 4, incubation period 1d; LB-medium, 27°C
[3] = tested on: Pectobacterium carotovorum ssp. carotovorum; settings: Table 4, incubation period 1d; LB-medium, 27°C
[4] = tested on: Clavibacter michiganensis ssp. michiganensis; settings: Table 4, incubation period 2d; LB-medium, 27°C
[5] = tested on: Pseudomonas corrugata; settings: Table 4, incubation period 2d; LB-medium, 27°C
[6] = tested on: Pseudomonas syringae pv. syringae; settings: Table 4, incubation period 1d; LB-medium, 27°C

Substance	MIC [1] [µg/mL]	MIC [2] [µg/mL]	MIC [3] [µg/mL]	MIC [4] [µg/mL]	MIC [5] [µg/mL]	MIC [6] [µg/mL]
KRRKLIKILKLIAKLIRKKR-NH2 [SP13-7]	0.1	10	>10	0.25	0.5	>10
KRRKLAFRAFRFALKAVLKK-NH2 [SP13-13]	0.25	2.5	>10	0.5	0.25	0.5
KRRILIRILKLIIKLILKKR-NH2 [SP13-5]	1.0	2.5	>10	2.5	10	>10
LRFLRRILRRLL-NH2 [SP10-8]	0.5	1.0	2.5	0.5	0.5	0.5
RKKKLKIIKRLI-NH2 [SP1-7]	1.0		>10	2.5	0.5	0.1
RKKKLKFFKRLF-NH2 [SP1-11]	2.5	>10	>10	2.5	0.25	1.0
RKKKVKLLKRLV-NH2 [SP1-3]	>10	5.0	>10	>10	2.5	0.25
RKKRKKLLKRLI-NH2 [SP1-20]	10	10	>10	5.0	0.5	0.25
RKKRKKLIKRLI-NH2 [SP1-19]	5.0	>10	>10	5.0	0.5	<0.1
LRFARRALRRLF-NH2 [SP10-9]	1.0	0.25	2.5	1.0	0.5	0.25
LRIIRRILRRLI-NH2 [SP10-6]	1.0	1.0	2.5	2.5	2.5	2.5
KRRLILRILRLAIRALVKKR-NH2 [SP13-2]	0.25	10	>10	0.25	5.0	5.0
KKKKKKIIKKII-NH2 [SP1-22]	>10	1.0	>10	>10	>10	2.5
RKKRKKLLKRLL-NH2 [SP1-18]	5.0	1.0	>10	5.0	0.25	0.1
LRFLKKILKKLF-NH2 [SP10-1]	2.5	1.0	2.5	1.0	2.5	2.5
KRRKAIKILKLIAKAIRKKR-NH2 [SP13-9]	0.1	>10	>10	0.25	0.25	>10

Substance	MIC [1] [µg/mL]	MIC [2] [µg/mL]	MIC [3] [µg/mL]	MIC [4] [µg/mL]	MIC [5] [µg/mL]	MIC [6] [µg/mL]
RKKKIKIIKRLI-NH2 [SP1-8]	2.5		>10	5.0	2.5	0.25
RKKRLKVVKRLV-NH2 [SP1-4]	>10	2.5	>10	>10	>10	5.0
RKKKFKFFKRFF-NH2 [SP1-13]	0.5	2.5	>10	0.25	<0.1	0.1
KRKKLLKRLL-NH2 [SP1-15]	5.0	1.0	>10	5.0	<0.1	0.1
LRFIKKILKKLI-NH2 [SP10-4]	0.1	1.0	2.5	0.25	2.5	0.25
KRRLIARILRLAIRALVKKR-NH2 [SP13-1]	0.5	1.0	>10	0.5	2.5	1.0
KRRKLAFRLFRLFLKLVLKK-NH2 [SP13-14]	0.25	2.5	>10	0.5	2.5	5.0
LRILRRLLRRLF-NH2 [SP10-7]	5.0	1.0	>10	5.0	2.5	>10
KRRKLIKILKLIIKLIRKKR-NH2 [SP13-6]	0.1	2.5	>10	0.1	2.5	1.0
KKKKIIKRLI-NH2 [SP1-17]	>10	1.0	>10	>10	5.0	<0.1
RKKKKKIIKKLI-NH2 [SP1-21]	>10	2.5	>10	>10	2.5	0.5
KRRLALFRAFRLALKSVLKK-NH2 [SP13-10]	0.1	1.0	>10	0.1	0.25	>10
RKKKLKVVKRLV-NH2 [SP1-6]	>10	1.0	>10	10	>10	5.0
RKKKFKIFKRLF-NH2 [SP1-14]	1.0	1.0	>10	1.0	0.5	<0.1
RKKRVKLLKRLV-NH2 [SP1-2]	5.0	5.0	>10	10	0.5	2.5
LRFAKKALKKLF-NH2 [SP10-3]	2.5	0.25	>10	2.5	1.0	0.25

— article PMC3741113, “De-Novo Design of Antimicrobial Peptides for Plant Protection” (PLoS ONE, 2013)
